Measured values reported in patent publication US11096985B2, “Antimicrobial peptides, their variants and uses” (priority 2015, dated 2021).
Where a SMILES comes first, the peptide text is derived from it. [ ]: non-standard residue; d: D form.

How the values were obtained:
[1] = test system: clinical strains of Escherichia coli; experiment: MIC, clinical strains of E. coli; assay type: cell-based; design: unit: μg/ml; details: microdilution, Muller Hinton broth-cation adjusted, 0.02% BSA, 0.2% acetic acid
Procedure, shortened: (§1)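 MIC = lowest peptide concentration showing no visual growth after 20–24 h at 37° C. Range 0.125–128 μg/ml; bacteria at 5.0×10^5 cfu/ml in MH broth, polypropylene microdilution format; yeasts in potato dextrose broth.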

[2] = test system: clinical strains of Klebsiella pneumoniae; experiment: MIC, clinical strains of K. pneumoniae; assay type: cell-based; design: unit: μg/ml; details: microdilution, Muller Hinton broth-cation adjusted, 0.02% BSA, 0.2% acetic acid
Procedure, shortened: as §1

[3] = test system: clinical strains of Pseudomonas aeruginosa; experiment: MIC, clinical strains of P. aeruginosa; assay type: cell-based; design: unit: μg/ml; details: microdilution, Muller Hinton broth-cation adjusted, 0.02% BSA, 0.2% acetic acid
Procedure, shortened: as §1

[4] = test system: clinical strains of Serratia marcescens; experiment: MIC, clinical strains of Serratia marcescens; assay type: cell-based; design: unit: µg/mL; details: microdilution, Muller Hinton broth-cation adjusted, 0.02% BSA, 0.2% acetic acid
Procedure, shortened: as §1

[5] = test system: clinical strains of Proteus mirabilis; experiment: MIC, clinical strains of Proteus mirabilis; assay type: cell-based; design: unit: µg/mL; details: microdilution, Muller Hinton broth-cation adjusted, 0.02% BSA, 0.2% acetic acid
Procedure, shortened: as §1

[6] = test system: clinical strains of Enterobacter cloacae; experiment: MIC, clinical strains of Enterobacter cloacae; assay type: cell-based; design: unit: μg/ml; details: microdilution, Muller Hinton broth-cation adjusted, 0.02% BSA, 0.2% acetic acid
Procedure, shortened: as §1

[7] = test system: clinical strains of Staphylococcus aureus; experiment: MIC, clinical strains of S. aureus; assay type: cell-based; design: unit: μg/ml; details: microdilution, Muller Hinton broth-cation adjusted, 0.02% BSA, 0.2% acetic acid
Procedure, shortened: as §1

[8] = test system: clinical strains of Streptococcus pneumoniae; experiment: MIC, clinical strains of Streptococcus pneumoniae; assay type: cell-based; design: unit: µg/mL; details: microdilution, Muller Hinton broth-cation adjusted, 0.02% BSA, 0.2% acetic acid
Procedure, shortened: as §1

[9] = test system: clinical strains of Acinetobacter baumannii; experiment: MIC, clinical strains of Acinetobacter baumannii; assay type: cell-based; details: microdilution, Muller Hinton broth-cation adjusted, 0.02% BSA, 0.2% acetic acid
Experimental: Minimum inhibition concentrations (MICs) were determined against Escherichia coli (ATCC 25922), Staphylococcus aureus (ATCC 25923), Klebsiella pneumoniae (ATCC 10031) and Pseudomonas aeruginosa (ATCC 27853). Also clinical strains of E. coli, K. pneumoniae, E. cloacae, P. aeruginosa, Serratia marcescens, Proteus mirabilis, S. pneumoniae, Acinetobacter baumannii, A. johnsonii and S. aureus were used for MICs assays. Additionally, clinical strains of yeast including Candida albicans, C. glabrata, C. parapsilosis and C. quillermondiae were used. The susceptibility of these microorganisms to Chain peptides were determined using micro broth dilution assay. Colonies of the respective microorganism from Muller Hinton (MH) agar plates incubated overnight were suspended in MH broth media and final concentration of microorganism was adjusted to 5.0×10^5 cfu/ml. An aliquot of 10 μl of each Chain peptide, or gentamicin, tetracycline as reference antibiotics were added in differing concentrations along with 90 μl of bacterial suspension to 96 well polypropylene plates and incubated at 37° C. for 20 to 24 hours. Concentrations of Chain peptides and reference antibiotics ranged from 0.125 to 128 μg/ml and the MICs were recorded as the lowest concentration with no visual growth of bacteria. Similarly, antifungal MICs were tested in Potato dextrose broth.
Clinical strains of yeasts including Candida albicans, C. glabrata, C. parapsilosis and C. quillermondiae were also tested with the 12 Chain peptides. The minimum inhibitory concentration (MICs) varied between these peptides and are presented in Tables 4a, 4b, 4c and 5a, 5b, 5c. Peptides Chain 105, 201 and 308 are broad spectrum antimicrobials with MICs between 0.5-32 μg/ml against all the bacteria and yeasts tested, except Serratia marcescens and Proteus mirabilis, against which the MICs were between 64-128 μg/ml. Peptide Chain 306 has narrow spectrum activity against E.coli at 1 μg/ml and for the rest of the bacterial strains at >32 μg/ml (FIG. 10).

[10] = test system: clinical strains of Candida albicans; experiment: MIC, clinical yeast strains, Candida albicans; assay type: cell-based; design: unit: μg/ml
Procedure, shortened: as §1

[11] = test system: clinical strains of C. glabrata; experiment: MIC, clinical yeast strains, C. glabrata; assay type: cell-based, Candida glabrata; design: unit: μg/ml
Procedure, shortened: as §1

[12] = test system: clinical strains of C. parapsilosis; experiment: MIC, clinical yeast strains, C. parapsilosis; assay type: cell-based, Candida parapsilosis; design: unit: μg/ml
Procedure, shortened: as §1

[13] = test system: clinical strains of C. quillermondiae; experiment: MIC, clinical yeast strains, C. quillermondiae; assay type: cell-based; details: C. quillermondiae clinical yeast strain 1
Procedure, shortened: as §1

## CC[C@@H](C)[C@@H](NC(=O)[C@@H](Cc1c[nH]c2ccccc12)NC(=O)[C@H](N)CCCCN)C(=O)N[C@@H](C(=O)N[C@H](Cc1c[nH]c2ccccc12)C(=O)N[C@H](CCCNC(=N)N)C(=O)N[C@H](Cc1c[nH]c2ccccc12)C(=O)N[C@H](CCCNC(=N)N)C(=O)N[C@H](Cc1ccccc1)C(=O)N[C@H](CCCCN)C(=O)N[C@H](CCCNC(=N)N)C(=O)O)C(C)C [Chain201D] (H-[dK][dW][dI][dV][dW][dR][dW][dR][dF][dK][dR]-OH)
[1]; Escherichia coli clinical strain 1
  Minimum inhibitory concentration: 16
[1]; Escherichia coli clinical strain 2
  Minimum inhibitory concentration: 1
[1]; Escherichia coli clinical strain 3
  Minimum inhibitory concentration: 1
[1]; Escherichia coli clinical strain 4
  Minimum inhibitory concentration: 1
[1]; Escherichia coli clinical strain 5
  Minimum inhibitory concentration: 1
[2]; Klebsiella pneumoniae clinical strain 1
  Minimum inhibitory concentration: 2
[2]; Klebsiella pneumoniae clinical strain 2
  Minimum inhibitory concentration: 2
[2]; Klebsiella pneumoniae clinical strain 3
  Minimum inhibitory concentration: 4
[2]; Klebsiella pneumoniae clinical strain 4
  Minimum inhibitory concentration: 4
[2]; Klebsiella pneumoniae clinical strain 5
  Minimum inhibitory concentration: 2
[3]; Pseudomonas aeruginosa clinical strain 1
  Minimum inhibitory concentration: 4
[3]; Pseudomonas aeruginosa clinical strain 2
  Minimum inhibitory concentration: 4
[3]; Pseudomonas aeruginosa clinical strain 3
  Minimum inhibitory concentration: 4
[3]; Pseudomonas aeruginosa clinical strain 4
  Minimum inhibitory concentration: 2
[3]; Pseudomonas aeruginosa clinical strain 5
  Minimum inhibitory concentration: 2
[4]; Serratia marcescens clinical strain 1
  Minimum inhibitory concentration: 64
[4]; Serratia marcescens clinical strain 2
  Minimum inhibitory concentration: 64
[4]; Serratia marcescens clinical strain 3
  Minimum inhibitory concentration: 64
[4]; Serratia marcescens clinical strain 4
  Minimum inhibitory concentration: 64
[4]; Serratia marcescens clinical strain 5
  Minimum inhibitory concentration: 128
[5]; Proteus mirabilis clinical strain 1
  Minimum inhibitory concentration: >128
[5]; Proteus mirabilis clinical strain 2
  Minimum inhibitory concentration: 32
[5]; Proteus mirabilis clinical strain 3
  Minimum inhibitory concentration: 64
[5]; Proteus mirabilis clinical strain 4
  Minimum inhibitory concentration: >128
[5]; Proteus mirabilis clinical strain 5
  Minimum inhibitory concentration: >128
[6]; Enterobacter cloacae clinical strain 1
  Minimum inhibitory concentration: 1
[6]; Enterobacter cloacae clinical strain 2
  Minimum inhibitory concentration: 2
[6]; Enterobacter cloacae clinical strain 3
  Minimum inhibitory concentration: 2
[6]; Enterobacter cloacae clinical strain 4
  Minimum inhibitory concentration: 2
[6]; Enterobacter cloacae clinical strain 5
  Minimum inhibitory concentration: 1
[7]; Staphylococcus aureus clinical strain 1
  Minimum inhibitory concentration: 1
[7]; Staphylococcus aureus clinical strain 2
  Minimum inhibitory concentration: 1
[7]; Staphylococcus aureus clinical strain 3
  Minimum inhibitory concentration: 1
[7]; Staphylococcus aureus clinical strain 4
  Minimum inhibitory concentration: 1
[7]; Staphylococcus aureus clinical strain 5
  Minimum inhibitory concentration: 1
[8]; Streptococcus pneumoniae clinical strain 1
  Minimum inhibitory concentration: 8
[8]; Streptococcus pneumoniae clinical strain 2
  Minimum inhibitory concentration: 4
[8]; Streptococcus pneumoniae clinical strain 3
  Minimum inhibitory concentration: 2
[8]; Streptococcus pneumoniae clinical strain 4
  Minimum inhibitory concentration: 4
[8]; Streptococcus pneumoniae clinical strain 5
  Minimum inhibitory concentration: 4
[9]; Acinetobacter baumannii clinical strain 1
  Minimum inhibitory concentration: 4
[9]; Acinetobacter baumannii clinical strain 2
  Minimum inhibitory concentration: 4
[9]; Acinetobacter baumannii clinical strain 3
  Minimum inhibitory concentration: 4
[9]; Acinetobacter baumannii clinical strain 4
  Minimum inhibitory concentration: 4
[9]; Acinetobacter baumannii clinical strain 5
  Minimum inhibitory concentration: 4
[10]; Candida albicans clinical yeast strain 1
  Minimum inhibitory concentration: 16
[10]; Candida albicans clinical yeast strain 2
  Minimum inhibitory concentration: 8
[10]; Candida albicans clinical yeast strain 3
  Minimum inhibitory concentration: 8
[10]; Candida albicans clinical yeast strain 4
  Minimum inhibitory concentration: 16
[10]; Candida albicans clinical yeast strain 5
  Minimum inhibitory concentration: 8
[11]; C. glabrata clinical yeast strain 1
  Minimum inhibitory concentration: 8
[11]; C. glabrata clinical yeast strain 2
  Minimum inhibitory concentration: 8
[11]; C. glabrata clinical yeast strain 3
  Minimum inhibitory concentration: 8
[11]; C. glabrata clinical yeast strain 4
  Minimum inhibitory concentration: 64
[12]; C. parapsilosis clinical yeast strain 1
  Minimum inhibitory concentration: 8
[12]; C. parapsilosis clinical yeast strain 2
  Minimum inhibitory concentration: 8
[12]; C. parapsilosis clinical yeast strain 3
  Minimum inhibitory concentration: 8
[12]; C. parapsilosis clinical yeast strain 4
  Minimum inhibitory concentration: 8
[13]
  Minimum inhibitory concentration: 8
